What all share (type): cell-based
The subject of data set [1] is C42B-EnzaRes cells. Put plainly: Boyden chamber-based in vitro migration assay. The note with it: MYCi975 2 μM, Enzalutamide 10 μM, vs Intact (DMSO). The method, then: (§1) FIGS. 13A-13F show MYC targeting is beneficial for patients in Enzalutamide-resistant conditions. (FIG. 13A) Drug sensitivity curves of Enzalutamide-naïve, or Enzalutamide-resistant (EnzaRes) C42B cells treated with MYCi975. (FIG. 13B) Colony formation assay using Enzalutamide-resistant (EnzaRes) C42B cells in Intact (treated with DMSO), treated with Enzalutamide (10 μM), MYCi975 (2 μM), or a combination of Enzalutamide+MYCi975 (10 μM+2 μM). Cells were grown in the presence of respective drugs. Representative images are shown. P-value was estimated using a one-tailed Welch t-test. (FIG. 13C) Boyden chamber-based in vitro migration assay using Enzalutamide-resistant (EnzaRes) C42B cells in Intact (treated with DMSO), treated with Enzalutamide (10 μM), MYCi975 (2 μM), or a combination of Enzalutamide+MYCi975 (10 μM+2 μM). Bars represent the quantification of Crystal Violet trapped by migrated cells. P-value was estimated using a one-tailed Welch t-test. (FIG. 13D) Expression of NME2 in Intact and Enzalutamide-resistant (EnzaRes) C42B cells, using the qRT-PCR. P-value was estimated using the one-tailed Welch t-test. […] Bars represent the quantification of Crystal Violet trapped by migrated cells. * p-value <0.05, ** p-value≤0.01, *** p-value≤0.001

The subject of data set [2] is C42B cells. Put plainly: Dose-response cell viability assay in C42B cells. Particulars: both Enzalutamide-naïve and Enzalutamide-resistant conditions, dose-dependent manner (FIG. 13A). The method, then:
as §1, with “p-value≤0.001 […]” for “p-value≤0.001”

Data set [3] relates to C42B-EnzaRes cells. Put plainly: Colony formation assay, Enzalutamide-resistant C42B cells. Particulars: MYCi975 2 μM, Enzalutamide 10 μM, compared to Intact (DMSO). As for the experimental part: as §1, with “p-value≤0.001 […]” for “p-value≤0.001”
Data set [4] has as its system LNCaP cells. Put plainly: Dose-response cell viability assay in LNCaP cells. The note with it: both Enzalutamide-naïve and Enzalutamide-resistant conditions, dose-dependent manner (FIG. 14A). The method, then: (§2) FIGS. 14A and 14B show MYC inhibition reduces viability and colony formation in Enzalutamide resistant conditions. (FIG. 14A) Drug response curves of Enzalutamide naïve LNCaP or Enzalutamide-resistant LNCaP cells treated with Enzalutamide and/or MYC-i975. (FIG. 14B) Colony formation assay using Enzalutamide-resistant LNCaP cells t (LNCaP-Enza-Res) in intact (treated with DMSO), treated with enzalutamide (10 μM), MYC-i975 (2 μM), or a combination of Enzalutamide+MYC-i975 (10 μM+2 μM). Cells were grown in the presence of respective drugs. Bars represent quantification of Crystal Violet trapped by migrated cells. P-value is estimated utilizing one-tailed Welch t-test. * p<0.05, *** p≤0.001.
(§3) Generation of Enzalutamide-resistant cell lines: LNCaP (clone FDG) and C42B cells were purchased from ATCC and were grown in RPMI1640 media (GIBCO #11875093) supplemented with 10% Fetal Bovine Serum (FBS, Corning Cat #35-011-CV) and maintained at […] in and 5% CO2. Enzalutamide powder was purchased from Sellekchem (cat #S1250) and re-suspended in DMSO. Cells were plated in 6 well plates and treated either with DMSO, or with Enzalutamide (20 μM), refreshed every 4 days for up to 3 months until the resistance emerged. RNA from cells was extracted on indicated days using the methods described below. […]

For data set [5], the system named is LNCaP-EnzaRes cells. Put plainly: Colony formation assay, Enzalutamide-resistant LNCaP cells. The note with it: MYCi975 2 μM, Enzalutamide 10 μM, compared to Intact (DMSO). As for the experimental part:
as §2, §3

Data set [6] concerns MYC. Put plainly: Doxycycline-inducible shRNA knockdown of NME2, MYC expression by Western blot. Particulars: C4-2B cells; 0-2000 ng/mL doxycycline for 96 hours; Western blot (FIG. 15). The method, then:
Finally, C4-2B cells expressing doxycycline-inducible shRNA targeting NME2 were generated using the targeting sequence […] (SEQ ID NO: 9). Cells were treated with 0-2000 ng/mL doxycycline for 96 hours and NME2 and MYC expression were evaluated by Western blot.
(In general: In western blotting, separated proteins are transferred to a membrane and probed.)

As for `Cn1nc(C(F)(F)F)cc1-c1ccc(OCc2ccc(Cl)cc2)c(-c2ccc(Cl)c(C(F)(F)F)c2)c1O` [MYCi975], the cell migration entry in data set [1] is “significant reduction in cell migration”. Besides, the cell viability entry in data set [2] and in data set [4] was “striking reduction of the cell viability” each time. For the same compound, the colony formation result in data set [3] and in data set [5] was “reduced the colony formation” throughout.
With “shRNA targeting NME2: doxycycline-inducible shRNA targeting NME2, targeting sequence GAAATCAGCCTATGGTTTAAG”, in data set [6], the MYC expression entry was “suppresses MYC expression”.

Source of the values: patent US20260248768A1, “MYC PROGRAM AS A MARKER OF RESPONSE TO ENZALUTAMIDE IN PROSTATE CANCER” (Rutgers, The State University of New Jersey, priority 2022, published 2026).
